Test results: US11963995B2, “Methods comprising desmopressin” (Ferring B.V., priority 2008, dated 2024)

Test system: adult patients with nocturia
Experiment: Change in urine volume (nocturnal, total) from baseline to Day 28 (Part I)
Type: in vivo, human
Settings: for median decrease of nocturnal urine volume compared to baseline before treatment: Day 28; for Change from baseline to final visit (Day 28) of nocturnal urine volume, mean / Change from baseline to final visit (Day 28) of nocturnal urine volume, median: ITT, Part I
Method: As used herein, the term “nocturnal urine” refers to the total urine volume from 5 minutes after bedtime until rising in the morning, including the first void within 30 minutes of rising.
All treatments were administered orally once per night approximately 1 hour prior to bedtime; subjects were instructed to limit their fluid intake prior to drug self-administration. […] Randomization was to be stratified by age (<65, ≥65 years) and by the absence/presence of nocturnal polyuria, defined as a ratio of nighttime urine volume/24-hour urine volume 33%. To achieve the desired number of subjects within each stratum, enrollment of subjects in a particular stratum (age and/or presence/absence of nocturnal polyuria) could be halted. If this was necessary, all investigative sites were to be informed in writing at least 1 week in advance to stop screening in a population of subjects.
Changes in urine volume from baseline to the end of Day 28 were also assessed and included herein.
Missing values concerning number of nocturnal voids at Day 8, Day 15, Day 22, and Day 28 in Part I were imputed using last observation carried forward (LOCF). Missing values concerning sleep disturbance and urine volume (for average 24-hour urine volume and average nocturnal urine volume) were not imputed.

[1] = 10 ug, females over 50 years of age
[2] = 25 ug, females over 50 years of age
[3] = 50 ug, females over 50 years of age
[4] = 100 ug, females over 50 years of age
[5] = all males with monitoring, 10 ug dose
[6] = all males with monitoring, 25 ug dose
[7] = all males with monitoring, 50 ug dose
[8] = all males with monitoring, 100 ug dose
[9] = females over 65 years of age, 10 ug dose
[10] = females over 65 years of age, 25 ug dose
[11] = females over 65 years of age, 50 ug dose
[12] = females over 65 years of age, 100 ug dose

## NC(=O)CC[C@@H]1NC(=O)[C@H](Cc2ccccc2)NC(=O)[C@H](Cc2ccc(O)cc2)NC(=O)CCSSC[C@@H](C(=O)N2CCC[C@H]2C(=O)N[C@H](CCCN=C(N)N)C(=O)NCC(N)=O)NC(=O)[C@H](CC(N)=O)NC1=O [desmopressin]
10 μg, all females
  median decrease of nocturnal urine volume compared to baseline before treatment: 179 mL
10 ug, all females
  Change from baseline to final visit (Day 28) of nocturnal urine volume, mean: -207 mL
  Change from baseline to final visit (Day 28) of nocturnal urine volume, median: -179 mL
10 μg, all groups
  median decrease of nocturnal urine volume compared to baseline before treatment: 150 mL
10 ug, all groups
  Change from baseline to final visit (Day 28) of nocturnal urine volume, mean: -164 mL
  Change from baseline to final visit (Day 28) of nocturnal urine volume, median: -150 mL
10 μg, females over 50 years of age
  median decrease of nocturnal urine volume compared to baseline before treatment: 150 mL
[1]
  Change from baseline to final visit (Day 28) of nocturnal urine volume, mean: -197 mL
  Change from baseline to final visit (Day 28) of nocturnal urine volume, median: -150 mL
25 μg, all females
  median decrease of nocturnal urine volume compared to baseline before treatment: 298 mL
25 ug, all females
  Change from baseline to final visit (Day 28) of nocturnal urine volume, mean: -307 mL
  Change from baseline to final visit (Day 28) of nocturnal urine volume, median: -298 mL
25 ug, all groups
  Change from baseline to final visit (Day 28) of nocturnal urine volume, mean: -224 mL
  Change from baseline to final visit (Day 28) of nocturnal urine volume, median: -233 mL
25 μg, females over 50 years of age
  median decrease of nocturnal urine volume compared to baseline before treatment: 383 mL
[2]
  Change from baseline to final visit (Day 28) of nocturnal urine volume, mean: -356 mL
  Change from baseline to final visit (Day 28) of nocturnal urine volume, median: -383 mL
25 μg, females over 65 years of age
  median decrease of nocturnal urine volume compared to baseline before treatment: 383 mL
50 ug, all females
  Change from baseline to final visit (Day 28) of nocturnal urine volume, mean: -257 mL
  Change from baseline to final visit (Day 28) of nocturnal urine volume, median: -204 mL
50 ug, all groups
  Change from baseline to final visit (Day 28) of nocturnal urine volume, mean: -272 mL
  Change from baseline to final visit (Day 28) of nocturnal urine volume, median: -233 mL
[3]
  Change from baseline to final visit (Day 28) of nocturnal urine volume, mean: -249 mL
  Change from baseline to final visit (Day 28) of nocturnal urine volume, median: -196 mL
100 ug, all females
  Change from baseline to final visit (Day 28) of nocturnal urine volume, mean: -321 mL
  Change from baseline to final visit (Day 28) of nocturnal urine volume, median: -283 mL
100 ug, all groups
  Change from baseline to final visit (Day 28) of nocturnal urine volume, mean: -312 mL
  Change from baseline to final visit (Day 28) of nocturnal urine volume, median: -283 mL
[4]
  Change from baseline to final visit (Day 28) of nocturnal urine volume, mean: -317 mL
  Change from baseline to final visit (Day 28) of nocturnal urine volume, median: -275 mL
100 μg, males with monitoring
  median decrease of nocturnal urine volume compared to baseline before treatment: 264 mL
[5]
  Change from baseline to final visit (Day 28) of nocturnal urine volume, mean: -122 mL
  Change from baseline to final visit (Day 28) of nocturnal urine volume, median: -83 mL
[6]
  Change from baseline to final visit (Day 28) of nocturnal urine volume, mean: -146 mL
  Change from baseline to final visit (Day 28) of nocturnal urine volume, median: -167 mL
[7]
  Change from baseline to final visit (Day 28) of nocturnal urine volume, mean: -286 mL
  Change from baseline to final visit (Day 28) of nocturnal urine volume, median: -235 mL
[8]
  Change from baseline to final visit (Day 28) of nocturnal urine volume, mean: -296 mL
  Change from baseline to final visit (Day 28) of nocturnal urine volume, median: -264 mL
All males, 10 ug dose
  Change from baseline to final visit (Day 28) of nocturnal urine volume, mean: -125 mL
  Change from baseline to final visit (Day 28) of nocturnal urine volume, median: -117 mL
All males, 25 ug dose
  Change from baseline to final visit (Day 28) of nocturnal urine volume, mean: -162 mL
  Change from baseline to final visit (Day 28) of nocturnal urine volume, median: -200 mL
All males, 50 ug dose
  Change from baseline to final visit (Day 28) of nocturnal urine volume, mean: -286 mL
  Change from baseline to final visit (Day 28) of nocturnal urine volume, median: -246 mL
All males, 100 ug dose
  Change from baseline to final visit (Day 28) of nocturnal urine volume, mean: -306 mL
  Change from baseline to final visit (Day 28) of nocturnal urine volume, median: -270 mL
[9]
  Change from baseline to final visit (Day 28) of nocturnal urine volume, mean: -91 mL
  Change from baseline to final visit (Day 28) of nocturnal urine volume, median: -54 mL
[10]
  Change from baseline to final visit (Day 28) of nocturnal urine volume, mean: -372 mL
  Change from baseline to final visit (Day 28) of nocturnal urine volume, median: -383 mL
[11]
  Change from baseline to final visit (Day 28) of nocturnal urine volume, mean: -208 mL
  Change from baseline to final visit (Day 28) of nocturnal urine volume, median: -203 mL
[12]
  Change from baseline to final visit (Day 28) of nocturnal urine volume, mean: -323 mL
  Change from baseline to final visit (Day 28) of nocturnal urine volume, median: -285 mL
